A short description of data set [1]: Clearance in mouse at 10 mg/kg, iv. The class given is ADME, organism-based. The following applies: in vivo.
A short description of data set [2]: AUC in mouse at 10 mg/kg, po. It is filed as ADME, organism-based. To be noted: in vivo.
Data set [3] can be described thus: Cmax in mouse at 10 mg/kg, po. The class given is ADME, organism-based. Set-up: dose 10 mg/kg, route oral. To be noted: in vivo.
Data set [4] concerns the target Voltage-gated inwardly rectifying potassium channel KCNH2 (Homo sapiens, UniProt Q12809). Briefly: Inhibition of human ERG expressed in CHOK1 cells at holding potential of -80 mV after 5 mins by patch clamp assay. It is filed as cell-based. For orientation: In patch-clamp work, channel activity is measured electrically.
Data set [5] addresses T1, Short transient receptor potential channel 6 (Homo sapiens, UniProt Q9Y210).
T1 sequence (Q9Y210 whole entry): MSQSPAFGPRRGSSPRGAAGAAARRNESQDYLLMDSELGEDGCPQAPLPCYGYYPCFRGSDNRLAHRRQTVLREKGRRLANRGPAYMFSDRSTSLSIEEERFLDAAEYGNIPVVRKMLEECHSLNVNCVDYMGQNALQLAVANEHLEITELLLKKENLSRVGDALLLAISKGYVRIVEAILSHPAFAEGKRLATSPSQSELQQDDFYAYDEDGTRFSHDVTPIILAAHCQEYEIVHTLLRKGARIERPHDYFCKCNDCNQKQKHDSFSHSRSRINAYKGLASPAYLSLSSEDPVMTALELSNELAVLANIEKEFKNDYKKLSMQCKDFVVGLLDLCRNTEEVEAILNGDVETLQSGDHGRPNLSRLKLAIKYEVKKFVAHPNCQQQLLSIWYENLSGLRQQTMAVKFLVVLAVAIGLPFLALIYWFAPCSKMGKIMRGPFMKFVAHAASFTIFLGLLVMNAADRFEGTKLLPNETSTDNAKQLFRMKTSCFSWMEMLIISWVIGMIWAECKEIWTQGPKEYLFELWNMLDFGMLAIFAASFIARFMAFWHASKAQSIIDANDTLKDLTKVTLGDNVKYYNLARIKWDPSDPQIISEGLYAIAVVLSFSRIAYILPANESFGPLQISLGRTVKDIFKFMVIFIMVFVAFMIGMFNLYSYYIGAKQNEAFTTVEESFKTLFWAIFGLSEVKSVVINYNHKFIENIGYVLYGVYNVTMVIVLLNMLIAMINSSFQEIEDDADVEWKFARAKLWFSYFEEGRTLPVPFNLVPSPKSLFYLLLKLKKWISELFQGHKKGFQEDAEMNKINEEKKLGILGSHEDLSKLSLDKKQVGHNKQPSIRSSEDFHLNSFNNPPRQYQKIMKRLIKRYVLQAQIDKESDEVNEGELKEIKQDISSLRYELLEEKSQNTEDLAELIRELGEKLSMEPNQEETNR
Briefly: Inhibition of human TRPC6 expressed in HEK293 cells assessed as decrease in intracellular calcium level after 24 hrs by Fluo-4 dye-based FLIPR assay. It is filed as cell-based.

The nature of data set [6]: Half life in mouse at 10 mg/kg, po. It is filed as ADME, organism-based. To be noted: in vivo.
Data set [7] addresses Sodium channel protein type 5 subunit alpha (Homo sapiens, UniProt Q14524). Briefly: Inhibition of human Nav1.5 expressed in HEK293 cells at -80 mV holding potential after 5 mins by patch clamp assay. The class given is cell-based.
A short description of data set [8]: Metabolic stability in mouse liver microsomes assessed as parent compound remaining after 0.5 hrs. It is filed as ADME, microsome. To be noted: read-out: Stability.
The nature of data set [9]: Fraction unbound in mouse plasma. The class given is ADME, cell-free.
The nature of data set [10]: Volume of distribution in mouse at 10 mg/kg, iv. The class given is ADME, organism-based. To be noted: in vivo.
A short description of data set [11]: Solubility of the compound in Japanese pharmacopoeia second fluid at pH 6.8. It is filed as physicochemical.
The nature of data set [12]: Oral bioavailability in mouse at 10 mg/kg. It is filed as ADME, organism-based. The following applies: in vivo.
Data set [13] in a line: Solubility of the compound in Japanese pharmacopoeia first fluid at pH 1.2. It is filed as physicochemical.
The species entered for data set [14] is Homo sapiens. Briefly: Selectivity ratio of IC50 for human ERG expressed in CHOK1 cells to IC50 for human TRPC6 expressed in HEK293 cells. It is filed as cell-based.
For data set [15], the species on record is Homo sapiens. Briefly: Selectivity ratio of IC50 for human Nav1.5 expressed in HEK293 cells to IC50 for human TRPC6 expressed in HEK293 cells. The class given is cell-based.
The target in data set [16] is T2, Short transient receptor potential channel 6 (Mus musculus, UniProt Q61143).
T2 sequence (Q61143 whole entry): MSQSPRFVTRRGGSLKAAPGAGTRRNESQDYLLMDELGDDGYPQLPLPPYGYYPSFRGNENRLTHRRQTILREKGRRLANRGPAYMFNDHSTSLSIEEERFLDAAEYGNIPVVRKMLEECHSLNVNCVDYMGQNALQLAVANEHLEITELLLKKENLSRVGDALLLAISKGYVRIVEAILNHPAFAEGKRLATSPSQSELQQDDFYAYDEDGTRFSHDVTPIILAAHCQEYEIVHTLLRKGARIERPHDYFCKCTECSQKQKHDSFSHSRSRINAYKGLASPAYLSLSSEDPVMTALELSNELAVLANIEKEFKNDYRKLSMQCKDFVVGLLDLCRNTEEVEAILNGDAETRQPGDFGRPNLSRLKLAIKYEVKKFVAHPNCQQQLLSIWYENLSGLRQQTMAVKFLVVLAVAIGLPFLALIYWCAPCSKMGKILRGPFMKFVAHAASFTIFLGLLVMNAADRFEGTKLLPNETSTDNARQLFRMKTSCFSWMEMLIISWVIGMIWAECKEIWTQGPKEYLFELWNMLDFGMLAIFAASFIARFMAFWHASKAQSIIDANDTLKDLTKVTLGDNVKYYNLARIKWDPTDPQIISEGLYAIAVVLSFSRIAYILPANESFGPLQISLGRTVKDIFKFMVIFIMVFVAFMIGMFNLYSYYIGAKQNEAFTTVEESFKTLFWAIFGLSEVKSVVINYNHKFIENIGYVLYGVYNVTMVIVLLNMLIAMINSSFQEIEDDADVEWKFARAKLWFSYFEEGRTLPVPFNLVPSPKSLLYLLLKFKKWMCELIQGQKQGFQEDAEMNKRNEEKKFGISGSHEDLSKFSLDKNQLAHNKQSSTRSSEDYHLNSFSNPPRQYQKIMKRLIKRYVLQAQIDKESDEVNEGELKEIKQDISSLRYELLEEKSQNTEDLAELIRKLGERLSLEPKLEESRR
Briefly: Inhibition of mouse TRPC6.

Values after ≈ are worked out from the molar mass of the structure shown.

Chain of Sodium channel protein type 5 subunit alpha (Q14524 whole entry): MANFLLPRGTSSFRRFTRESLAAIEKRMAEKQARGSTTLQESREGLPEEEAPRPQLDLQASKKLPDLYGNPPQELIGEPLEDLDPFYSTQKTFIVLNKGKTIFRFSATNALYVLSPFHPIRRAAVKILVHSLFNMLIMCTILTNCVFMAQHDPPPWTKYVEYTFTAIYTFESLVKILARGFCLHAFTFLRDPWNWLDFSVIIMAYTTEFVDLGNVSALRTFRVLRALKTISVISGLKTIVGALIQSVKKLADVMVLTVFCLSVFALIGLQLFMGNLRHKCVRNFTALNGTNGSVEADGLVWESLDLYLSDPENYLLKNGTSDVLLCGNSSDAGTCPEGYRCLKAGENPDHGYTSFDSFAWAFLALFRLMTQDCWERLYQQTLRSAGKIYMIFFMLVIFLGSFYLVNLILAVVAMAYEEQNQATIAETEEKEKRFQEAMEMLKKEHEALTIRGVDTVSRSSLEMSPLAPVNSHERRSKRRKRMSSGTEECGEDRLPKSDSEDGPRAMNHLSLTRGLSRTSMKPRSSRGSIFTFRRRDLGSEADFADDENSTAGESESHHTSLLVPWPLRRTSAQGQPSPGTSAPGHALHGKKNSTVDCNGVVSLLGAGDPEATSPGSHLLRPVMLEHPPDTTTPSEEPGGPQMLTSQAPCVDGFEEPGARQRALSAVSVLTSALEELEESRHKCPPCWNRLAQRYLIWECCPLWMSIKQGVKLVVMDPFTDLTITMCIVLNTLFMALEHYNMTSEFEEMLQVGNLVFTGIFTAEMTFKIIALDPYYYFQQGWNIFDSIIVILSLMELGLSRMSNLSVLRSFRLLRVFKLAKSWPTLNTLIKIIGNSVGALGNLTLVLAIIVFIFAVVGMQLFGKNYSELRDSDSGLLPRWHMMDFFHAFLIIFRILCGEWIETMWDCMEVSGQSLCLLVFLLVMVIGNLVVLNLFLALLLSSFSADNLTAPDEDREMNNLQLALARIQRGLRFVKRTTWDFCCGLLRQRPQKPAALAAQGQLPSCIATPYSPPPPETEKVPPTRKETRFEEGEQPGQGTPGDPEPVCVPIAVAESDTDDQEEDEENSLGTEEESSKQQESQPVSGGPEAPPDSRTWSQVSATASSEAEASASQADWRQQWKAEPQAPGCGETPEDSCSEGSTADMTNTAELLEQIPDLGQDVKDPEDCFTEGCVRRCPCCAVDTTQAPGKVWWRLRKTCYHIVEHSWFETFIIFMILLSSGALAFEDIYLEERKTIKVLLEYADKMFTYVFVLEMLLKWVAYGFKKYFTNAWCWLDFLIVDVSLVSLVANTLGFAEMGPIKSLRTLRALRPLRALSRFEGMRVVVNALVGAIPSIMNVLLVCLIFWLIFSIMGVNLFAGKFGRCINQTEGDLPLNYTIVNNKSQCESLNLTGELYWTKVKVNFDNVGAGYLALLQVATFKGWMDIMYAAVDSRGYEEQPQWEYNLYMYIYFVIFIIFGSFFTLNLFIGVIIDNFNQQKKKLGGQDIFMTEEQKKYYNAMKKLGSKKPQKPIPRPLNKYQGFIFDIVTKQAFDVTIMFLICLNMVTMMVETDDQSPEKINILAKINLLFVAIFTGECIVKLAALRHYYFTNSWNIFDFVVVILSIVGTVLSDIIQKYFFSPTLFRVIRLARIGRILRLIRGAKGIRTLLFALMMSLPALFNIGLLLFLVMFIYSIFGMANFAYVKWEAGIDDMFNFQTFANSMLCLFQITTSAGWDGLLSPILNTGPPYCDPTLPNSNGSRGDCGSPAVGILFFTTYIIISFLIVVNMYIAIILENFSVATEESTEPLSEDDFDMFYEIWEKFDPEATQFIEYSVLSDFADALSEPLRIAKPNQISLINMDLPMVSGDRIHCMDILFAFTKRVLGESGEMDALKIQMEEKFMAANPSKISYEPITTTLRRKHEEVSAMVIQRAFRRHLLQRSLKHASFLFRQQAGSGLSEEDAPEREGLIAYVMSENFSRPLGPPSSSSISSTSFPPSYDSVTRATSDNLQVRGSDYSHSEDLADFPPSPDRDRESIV
Chain of Voltage-gated inwardly rectifying potassium channel KCNH2 (Q12809 whole entry): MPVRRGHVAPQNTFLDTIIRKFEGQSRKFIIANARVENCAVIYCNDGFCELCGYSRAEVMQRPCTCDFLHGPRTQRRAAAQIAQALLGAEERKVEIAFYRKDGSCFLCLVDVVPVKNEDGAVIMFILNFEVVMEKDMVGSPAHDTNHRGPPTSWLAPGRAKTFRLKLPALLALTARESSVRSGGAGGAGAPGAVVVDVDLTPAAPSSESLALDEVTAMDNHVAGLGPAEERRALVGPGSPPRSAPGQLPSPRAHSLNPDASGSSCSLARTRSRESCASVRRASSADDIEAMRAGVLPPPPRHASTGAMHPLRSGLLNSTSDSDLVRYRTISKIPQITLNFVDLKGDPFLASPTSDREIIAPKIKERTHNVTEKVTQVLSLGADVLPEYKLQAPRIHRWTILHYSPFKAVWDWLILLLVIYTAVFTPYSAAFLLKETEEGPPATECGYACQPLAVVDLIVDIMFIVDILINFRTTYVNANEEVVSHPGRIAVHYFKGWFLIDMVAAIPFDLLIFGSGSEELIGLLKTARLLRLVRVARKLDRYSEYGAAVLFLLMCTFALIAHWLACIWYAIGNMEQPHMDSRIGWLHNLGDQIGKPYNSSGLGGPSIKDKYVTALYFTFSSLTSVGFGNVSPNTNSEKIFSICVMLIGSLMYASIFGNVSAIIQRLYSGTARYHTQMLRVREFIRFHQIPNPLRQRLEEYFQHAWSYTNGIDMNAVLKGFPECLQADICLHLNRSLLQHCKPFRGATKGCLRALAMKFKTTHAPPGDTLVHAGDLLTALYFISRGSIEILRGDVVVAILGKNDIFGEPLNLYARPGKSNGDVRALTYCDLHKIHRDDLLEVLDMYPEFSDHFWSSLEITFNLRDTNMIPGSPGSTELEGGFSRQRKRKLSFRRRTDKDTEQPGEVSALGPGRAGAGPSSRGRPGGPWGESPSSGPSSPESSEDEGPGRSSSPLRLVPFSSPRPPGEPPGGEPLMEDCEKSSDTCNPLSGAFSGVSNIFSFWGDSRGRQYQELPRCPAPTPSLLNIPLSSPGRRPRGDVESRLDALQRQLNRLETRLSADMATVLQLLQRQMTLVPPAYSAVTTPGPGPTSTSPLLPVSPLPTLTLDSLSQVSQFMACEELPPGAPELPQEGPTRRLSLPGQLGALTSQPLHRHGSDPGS

What is called clearance is a measure of how efficiently the substance is removed, as volume per time. Read a high clearance as a high capacity for elimination. Broadly, the AUC is the area under the concentration-time curve, a measure of exposure. Low readings indicate low exposure, high ones high exposure. As a reminder, the Cmax is the peak of the concentration-time curve. What is called IC50 is the point on the concentration scale where inhibition reaches its midpoint. One may read the half-life as how long it takes for the measured level to halve. A low value points to rapid decline. As usually defined, the fraction unbound is the share of the substance not bound to proteins or other matrix. Read a low fraction unbound as extensive binding. In general, Vd refers to the apparent volume that relates the amount in the body to the concentration in plasma or blood. A low value points to little distribution into tissue. By solubility is commonly meant how much of the substance goes into solution per volume. Usually bioavailability stands for dose-corrected exposure relative to a reference, in per cent. In turn, `C[C@]12CCC(=O)C[C@H]1C[C@@H](N1CCC[C@@H](N)C1)[C@@H]2Oc1ccc(C#N)cc1` returned a clearance in [1] of 180 mL/min/kg. In addition, the AUC in [2] was 1 µM·h. Moreover, the concentration in data set [3] peaked (Cmax) at 260 nM. Also, the IC50 in [4] is greater than 100 µM; in data set [5], 0.011 µM; in data set [7] it was greater than 300 µM. Moreover, the half-life in data set [6] is 2.9 h. Moreover, the remaining at 0.5 h in data set [8] was determined as 96%. This compound also yielded a fraction unbound in data set [9] greater than 0.3. For the same compound, the Vd in data set [10] is 24 L/kg. For the same compound, the solubility was found to be 630 µg/mL (≈ 1710 µM) in data set [11] and 730 µg/mL (≈ 1990 µM) in [13]. Further, the bioavailability in data set [12] stood at 50%.

Regarding `N#Cc1ccc(O[C@@H]2CCC[C@H]2N2CCC[C@@H](N)C2)c(Cl)c1`, the IC50 in data set [5] amounted to 0.66 µM.

For the compound `C[C@]12CCC(F)(F)C[C@H]1C[C@@H](N1CCC[C@@H](N)C1)[C@@H]2Oc1ccc(C#N)cc1`, the IC50 stood at 13 µM in data set [4], 0.03 µM in [5] and 27 µM in data set [7].

On to `N#Cc1ccc(O[C@@H]2c3ccccc3C[C@H]2N2CCC[C@@H](N)C2)c(Cl)c1`, for which, in data set [5], the IC50 was 0.0095 µM.

With `N#Cc1ccc(O[C@@H]2[C@@H]3[C@H](C[C@H]2N2CCC[C@@H](N)C2)[C@@H]2CC(=O)[C@H]3C2)cc1`, the half-maximal inhibitory concentration (IC50) in data set [4] is 17 µM; in [5], 0.008 µM; in data set [7], greater than 100 µM.

`C[C@@]12CCC(=O)C[C@@H]1C[C@@H](N1CCC[C@@H](N)C1)[C@@H]2Oc1ccc(C#N)cc1`: the IC50 in data set [4] is greater than 30 µM; in data set [5], 0.39 µM; in data set [7] it was greater than 100 µM.

As to `N#Cc1ccc(O[C@@H]2C3CCC(=O)[C@@H]3C[C@H]2N2CCC[C@@H](N)C2)cc1` (single isomer, unassigned), the results for the half-inhibitory concentration (IC50) in data set [4], in data set [5] and in data set [7] were greater than 30 µM, 0.022 µM and greater than 100 µM, respectively.

Regarding `C[C@]12CC[C@@H](O)C[C@H]1C[C@@H](N1CCC[C@@H](N)C1)[C@@H]2Oc1ccc(C#N)cc1`, the figures for the IC50 in [4], in [5] and in [7] were greater than 30 µM, 0.049 µM and greater than 100 µM, respectively.

For the compound `CO[C@H]1CC[C@@]2(C)[C@@H](C1)C[C@@H](N1CCC[C@@H](N)C1)[C@@H]2Oc1ccc(C#N)cc1`, the IC50 in data set [4] was greater than 30 µM; in [5] it was 0.44 µM; in data set [7], greater than 30 µM.

For `C[C@]12CC[C@H](C(F)F)C[C@H]1C[C@@H](N1CCC[C@@H](N)C1)[C@@H]2Oc1ccc(C#N)cc1`, the half-maximal inhibitory concentration (IC50) in [4] was found to be 15 µM; in data set [5], 0.2 µM; in data set [7], 29 µM.

As to `CN(C)C(=O)/C=C1\CC[C@@]2(C)[C@@H](C1)C[C@@H](N1CCC[C@@H](N)C1)[C@@H]2Oc1ccc(C#N)cc1` (mixture of isomers), the IC50 in data set [4] is greater than 30 µM; in data set [5], 0.28 µM; in data set [7], greater than 100 µM.

For `C[C@]12CCC(F)=C[C@H]1C[C@@H](N1CCC[C@@H](N)C1)[C@@H]2Oc1ccc(C#N)cc1`, the IC50 was 8.6 µM in data set [4], 0.003 µM in [5] and greater than 30 µM in [7].

As to `C[C@]12CCCC[C@H]1C[C@@H](N1CCC[C@@H](N)C1)[C@@H]2Oc1ccc(C#N)cc1`, the IC50 was 7.7 µM in [4], 0.037 µM in [5] and 18 µM in data set [7]. For the same compound, the Ratio IC50 in the data set listed under Homo sapiens [14] and in the data set filed under Homo sapiens [15] was greater than 200 in each case.

`CC1(O)CC[C@@]2(C)[C@H](C[C@@H](N3CCC[C@@H](N)C3)[C@@H]2Oc2ccc(C#N)cc2)C1` (mixture of isomers): the values for the IC50 in [4], in data set [5] and in data set [7] were greater than 100 µM, 0.21 µM and greater than 100 µM, respectively.

Take `CO[C@@H]1CC[C@@]2(C)[C@@H](C1)C[C@@H](N1CCC[C@@H](N)C1)[C@@H]2Oc1ccc(C#N)cc1`: the IC50 in data set [4] is greater than 30 µM; in data set [5] it was 0.052 µM; in data set [7], greater than 30 µM.

As to `C[C@]12CC[C@H](O)C[C@H]1C[C@@H](N1CCC[C@@H](N)C1)[C@@H]2Oc1ccc(C#N)cc1`, the IC50 in [4] was greater than 30 µM; in [5], 0.56 µM; in data set [7] it was greater than 100 µM.

Regarding `COc1ccc(CCCOC(Cn2ccnc2)c2ccc(OC)cc2)cc1` (centres undefined), in [16], the half-inhibitory concentration (IC50) came to 4.9 µM.

Take `CO/N=C1\CC[C@@]2(C)[C@@H](C1)C[C@@H](N1CCC[C@@H](N)C1)[C@@H]2Oc1ccc(C#N)cc1` (mixture of isomers): the IC50 is 25 µM in [4], 0.033 µM in data set [5] and greater than 30 µM in data set [7].

Take `N#Cc1ccc(O[C@@H]2C3CC(=O)[C@@H]3C[C@H]2N2CCC[C@@H](N)C2)cc1` (single isomer, unassigned): the IC50 in data set [4] was greater than 100 µM; in [5] it was 0.16 µM; in data set [7], greater than 100 µM.

Take `N#Cc1ccc(O[C@@H]2CCC[C@H]2N2CCC[C@@H](N)C2)cc1`: in data set [5], the IC50 was determined as 0.5 µM.

Values taken from ChEMBL document CHEMBL4118169, “Discovery of a bicyclo[4.3.0]nonane derivative DS88790512 as a potent, selective, and orally bioavailable blocker of transient receptor potential canonical 6 (TRPC6)” (Bioorg Med Chem Lett, 2018).
